5 molecules from ChEMBL document CHEMBL1132809, “Synthesis and evaluation of 4-deacetoxyagosterol A as an MDR-modulator” (2000) can be followed below.

Experiment [1] has as its system KB 3-1. Nature of the experiment: Cytotoxicity was evaluated against KB-3-1 cells at 10 ug/mL. The experiment is classed as functional. To be noted: Homo sapiens.
Experiment [2] has as its system KB-C2. Nature of the experiment: The compound was evaluated to Inhibit the growth of KB-C2 cells at 1 ug/mL n the presence of colchicine (0.1 ug/ML).
Experiment [3] relates to KB-C2. The experiment in a line: The compound was evaluated to Inhibit the growth of KB-C2 cells at 3 ug/mL n the presence of colchicine (0.1 ug/ML).
Experiment [4] deals with KB-C2. The experiment in a line: The compound was evaluated to Inhibit the growth of KB-C2 cells at 10 ug/mL in the presence of colchicine (0.1 ug/ML).
Experiment [5] deals with KB-CV60. The experiment in a line: The compound was evaluated to Inhibit the growth of KB CV-60 cells at 1 ug/mL in the presence of vincristine (0.1 ug/ML).
Experiment [6] deals with KB-CV60. Nature of the experiment: The compound was evaluated to Inhibit the growth of KB CV-60 cells at 3 ug/mL in the presence of vincristine (0.1 ug/ML).
The test system of experiment [7] is KB-CV60. The experiment in a line: The compound was evaluated to Inhibit the growth of KB CV-60 cells at 10 ug/mL in the presence of vincristine (0.1 ug/ML).
Experiment [8] concerns KB 3-1. The experiment in a line: Cytotoxicity was evaluated against KB CV-60 cells at 0.1 ug/mL; No cytotoxicity. The experiment is classed as functional, cell-based. To be noted: Homo sapiens.
The test system of experiment [9] is KB 3-1. Nature of the experiment: Cytotoxicity was evaluated against KB-C2 cells at 0.1 ug/mL; No cytotoxicity. The conditions noted are these: Homo sapiens. The experiment is classed as functional, cell-based.
Experiment [10] concerns KB 3-1. Nature of the experiment: Cytotoxicity was evaluated against KB-3-1 cells at 3 ug/mL. The conditions noted are these: Homo sapiens. The experiment is classed as functional.

The structures appear in SMILES notation.

As for `CC(=O)O[C@@H]1[C@@H]2[C@@H](OC(C)=O)C=C3[C@H]([C@H](O)C[C@]4(C)[C@@H]([C@H](C)[C@H](O)CCC(C)C)CC[C@@H]34)[C@@]2(C)CC[C@@H]1OC(C)=O` [AGOSTEROL A], the inhibition (usually the relative decrease from the control value, in per cent) at 10 µg/mL in experiment [1] was 13%. Besides, the Inhibition (usually the change of the read-out against control, counted positive when it falls) in experiment [2] came to 75%; in experiment [3] it was 82%; in [4] it was 84%; in [5], 66%; in experiment [6], 73%; in experiment [7], 76%.
`COc1cc2c(c(OC)c1OC)-c1ccc(OC)c(=O)cc1[C@@H](NC(C)=O)CC2`: the Cytotoxicity result in experiment [8] and in [9] was “No cytotoxicity” each time.
Consider `CC[C@]1(O)C[C@H]2CN(CCc3c([nH]c4ccccc34)[C@@](C(=O)OC)(c3cc4c(cc3OC)N(C=O)[C@H]3[C@@](O)(C(=O)OC)[C@H](OC(C)=O)[C@]5(CC)C=CCN6CC[C@]43[C@@H]65)C2)C1`, for which the Cytotoxicity result in experiment [8] and in [9] was “No cytotoxicity” in each case.
Regarding `CC(=O)O[C@H]1CC[C@@]2(C)[C@H](C1)[C@@H](OC(C)=O)C=C1[C@@H]2[C@H](O)C[C@]2(C)[C@@H]([C@H](C)[C@H](O)CCC(C)C)CC[C@@H]12`, the inhibition at 10 µg/mL in experiment [1] turned out to be 19%. Further, the inhibition at 3 µg/mL in experiment [10] is 13%. Besides, the Inhibition in [2] was found to be 44%; in experiment [3], 76%; in [4], 87%; in experiment [5], 59%; in experiment [6], 64%; in experiment [7], 69%.
With `CC(=O)O[C@H]1CC[C@@]2(C)[C@H](C1)[C@@H](OC(C)=O)C=C1[C@@H]2[C@H](O)C[C@]2(C)[C@@H]([C@H](C)CCCC(C)C)CC[C@@H]12`, at 10 µg/mL the inhibition in experiment [1] was 39%. Besides, the inhibition at 3 µg/mL in experiment [10] came out at 5%. Further, the Inhibition in experiment [2] came out at 37%; in experiment [3], 69%; in experiment [4], 88%; in [5], 15%; in experiment [6] it was 25%; in experiment [7], 42%.
